Measurements published in ChEMBL document CHEMBL2417397, “Synthesis and biological properties of new N-Mannich bases derived from 3-methyl-3-phenyl- and 3,3-dimethyl-succinimides. Part V” (Eur J Med Chem, 2013).
Activity calls are given as the source filed them. The calls are words filed in the database; no cut-off is given here.

Experiments:
[1] = Neurotoxicity in ip dosed CF-1 albino mouse after 4 hrs by rotarod test; format: toxicity, organism-based; settings: CF-1, mouse, in vivo
Vibrio harveyi [2] = assay: Antimutagenic activity in Vibrio harveyi BB7XM assessed as inhibition of 4-nitroquinoline-N-oxide-induced mutation; format: functional
Vibrio harveyi [3] = assay: Antimutagenic activity in Vibrio harveyi BB7M assessed as inhibition of 4-nitroquinoline-N-oxide-induced mutation; format: functional
Vibrio harveyi [4] = assay: Antimutagenic activity in Vibrio harveyi BB7X assessed as inhibition of 4-nitroquinoline-N-oxide-induced mutation; format: functional
Vibrio harveyi [5] = assay: Antimutagenic activity in Vibrio harveyi BB7 assessed as inhibition of 4-nitroquinoline-N-oxide-induced mutation; format: functional
Vibrio harveyi [6] = assay: Induction of mutagenecity in Vibrio harveyi BB7XM; format: organism-based; settings: in vivo
Vibrio harveyi [7] = assay: Induction of mutagenecity in Vibrio harveyi BB7M; format: organism-based; settings: in vivo
Vibrio harveyi [8] = assay: Induction of mutagenecity in Vibrio harveyi BB7X; format: organism-based; settings: in vivo
Vibrio harveyi [9] = assay: Induction of mutagenecity in Vibrio harveyi BB7; format: organism-based; settings: in vivo
[10] = Neurotoxicity in ip dosed CF-1 albino mouse after 0.5 hrs by rotarod test; format: toxicity, organism-based; settings: CF-1, mouse, in vivo
Mus musculus [11] = assay: Anticonvulsant activity in ip dosed CF-1 albino mouse assessed as protection against maximal electroshock-induced seizures after 4 hrs; format: functional
Mus musculus [12] = assay: Anticonvulsant activity in CF-1 albino mouse assessed as protection against maximal electroshock-induced seizures at 300 mg/kg, ip after 0.5 hrs; format: functional, organism-based; parameters: dose 300 mg/kg
Rattus norvegicus [13] = assay: Neurotoxicity in Sprague-Dawley albino rat assessed as motor impairment at 30 mg/kg, po; format: toxicity, organism-based; parameters: dose 30 mg/kg, route oral; settings: in vivo
Rattus norvegicus [14] = assay: Anticonvulsant activity in Sprague-Dawley albino rat assessed as protection against maximal electroshock-induced seizures at 30 mg/kg, po after 4 hrs; format: functional
Rattus norvegicus [15] = assay: Anticonvulsant activity in Sprague-Dawley albino rat assessed as protection against maximal electroshock-induced seizures at 30 mg/kg, po after 2 hrs; format: functional
Rattus norvegicus [16] = assay: Anticonvulsant activity in Sprague-Dawley albino rat assessed as protection against maximal electroshock-induced seizures at 30 mg/kg, po after 1 hr; format: functional
Rattus norvegicus [17] = assay: Anticonvulsant activity in Sprague-Dawley albino rat assessed as protection against maximal electroshock-induced seizures at 30 mg/kg, po after 0.5 hrs; format: functional
Rattus norvegicus [18] = assay: Anticonvulsant activity in Sprague-Dawley albino rat assessed as protection against maximal electroshock-induced seizures at 30 mg/kg, po after 0.25 hrs; format: functional
Mus musculus [19] = assay: Neurotoxicity in CF-1 albino mouse at 300 mg/kg, ip after 4 hrs by rotarod test; format: toxicity, organism-based; parameters: dose 300 mg/kg, route intraperitoneal; settings: in vivo
Rattus norvegicus [20] = species on record: Rattus norvegicus; assay: Protective index, ratio of TD50 for Sprague-Dawley albino rat by rotarod test to ED50 for Sprague-Dawley albino rat; format: functional
[21] = Neurotoxicity in po dosed Sprague-Dawley albino rat at 30 mg/kg, po after 0.25 to 4 hrs by rotarod test; format: toxicity, organism-based; parameters: dose 30 mg/kg, route oral; settings: in vivo
Rattus norvegicus [22] = assay: Anticonvulsant activity in Sprague-Dawley albino rat assessed as time of peak effect for protection against maximal electroshock-induced seizures at 30 mg/kg, po; format: functional
Mus musculus [23] = assay: Anticonvulsant activity in CF-1 albino mouse assessed as time of peak effect for protection against maximal electroshock-induced seizures at 30 to 300 mg/kg, ip; format: functional; settings: dose mg/kg 30-300; route intraperitoneal
Mus musculus [24] = assay: Anticonvulsant activity in CF-1 albino mouse assessed as protection against maximal electroshock-induced seizures at 300 mg/kg, ip after 4 hrs; format: functional, organism-based; parameters: dose 300 mg/kg
Mus musculus [25] = assay: Neurotoxicity in CF-1 albino mouse at 300 mg/kg, ip after 0.5 hrs by rotarod test; format: toxicity, organism-based; parameters: dose 300 mg/kg, route intraperitoneal; settings: in vivo
Rattus norvegicus [26] = assay: Anticonvulsant activity in po dosed Sprague-Dawley albino rat assessed as protection against maximal electroshock-induced seizures after 0.25 to 4 hrs; format: functional
Mus musculus [27] = assay: Anticonvulsant activity in ip dosed CF-1 albino mouse assessed as protection against maximal electroshock-induced seizures after 0.5 hrs; format: functional

| SMILES | inhibition (INH) (Vibrio harveyi [2]) [%] | inhibition (INH) (Vibrio harveyi [3]) [%] | inhibition (INH) (Vibrio harveyi [4]) [%] | inhibition (INH) (Vibrio harveyi [5]) [%] | Activity (Vibrio harveyi [6]) | Activity (Vibrio harveyi [7]) | Activity (Vibrio harveyi [8]) | Activity (Vibrio harveyi [9]) | TD50 at 0.5 h [10] [mg/kg] | MED50 (Mus musculus [11]) [mg/kg] | Activity (Mus musculus [12]) | Activity (Rattus norvegicus [14]) | Activity (Rattus norvegicus [15]) | Activity (Rattus norvegicus [16]) | Activity (Rattus norvegicus [17]) | Activity (Rattus norvegicus [18]) | Activity (Mus musculus [19]) | Activity (Mus musculus [24]) | further results |
| --- | --- | --- | --- | --- | --- | --- | --- | --- | --- | --- | --- | --- | --- | --- | --- | --- | --- | --- | --- |
| CC1(c2ccccc2)CC(=O)N(CN2CCN(c3ccccc3F)CC2)C1=O (stereo not given) | 35 | 57 | 0 | 25 | Non-toxic | Non-toxic | Non-toxic | Non-toxic | 300 | 100 | inactive | – | – | – | – | – | – | – | TD50 at 4 h [1]: 300 mg/kg |
| COc1cccc(N2CCN(CN3C(=O)CC(C)(C)C3=O)CC2)c1 | – | – | – | – | – | – | – | – | 300 | 100 | inactive | inactive | inactive | inactive | 25% | inactive | Non-toxic | – | Activity (Rattus norvegicus [13]): Non-toxic |
| CCC1(C)CC(=O)NC1=O (stereo not given) [ETHOSUXIMIDE] | 43 | 43 | 0 | 30 | Non-toxic | Non-toxic | Non-toxic | Non-toxic | – | – | – | – | – | – | – | – | – | – | – |
| O=C1NC(=O)C(c2ccccc2)(c2ccccc2)N1 [PHENYTOIN] | – | – | – | – | – | – | – | – | – | – | – | 75% | 75% | 75% | Active | 25% | – | – | Ratio TD50/ED50 (Rattus norvegicus [20]): >3.6; TD50 [21]: > 100 mg/kg; Time (Rattus norvegicus [22]): 2 h; Time (Mus musculus [23]): 1 h |
| CC1(C)CC(=O)N(CN2CCN(c3ccc(F)cc3)CC2)C1=O | – | – | – | – | – | – | – | – | 300 | – | inactive | – | – | – | – | – | Non-toxic | inactive | – |
| Cc1cccc(N2CCN(CN3C(=O)CC(C)(C)C3=O)CC2)c1 | – | – | – | – | – | – | – | – | 300 | – | inactive | – | – | – | – | – | Non-toxic | inactive | – |
| CC1(C)CC(=O)N(CN2CCN(c3ccccc3Cl)CC2)C1=O | – | – | – | – | – | – | – | – | 100 | – | inactive | – | – | – | – | – | Non-toxic | inactive | – |
| CC1(c2ccccc2)CC(=O)N(CN2CCN(c3ccccc3Cl)CC2)C1=O (stereo not given) | 49 | 47 | 0 | 3 | Non-toxic | Non-toxic | Non-toxic | Non-toxic | – | – | inactive | – | – | – | – | – | Non-toxic | inactive | Activity (Mus musculus [25]): Non-toxic |
| O=C1CC(c2ccccc2Br)C(=O)N1CN1CCN(c2ccc(F)cc2)CC1 (stereo not given) | – | – | – | – | – | – | – | – | – | – | – | – | – | – | – | – | – | – | TD50 [21]: 62.4 mg/kg; ED50 (Rattus norvegicus [26]): 7.4 mg/kg |
| CC1(c2ccccc2)CC(=O)N(CN2CCN(c3cccc(C(F)(F)F)c3)CC2)C1=O (stereo not given) | – | – | – | – | – | – | – | – | – | 100 | inactive | – | – | – | – | – | – | – | TD50 at 4 h [1]: 300 mg/kg; Activity (Mus musculus [25]): Non-toxic |
| CC1(c2ccccc2)CC(=O)N(CN2CCN(c3ccc(Cl)cc3)CC2)C1=O (stereo not given) | 43 | 43 | 0 | 6 | Non-toxic | Non-toxic | Non-toxic | Non-toxic | – | 100 | inactive | 75% | 75% | 75% | inactive | inactive | Non-toxic | – | Activity (Rattus norvegicus [13]): Non-toxic; Activity (Mus musculus [25]): Non-toxic |
| CC1(C)CC(=O)N(CN2CCN(c3ccccc3F)CC2)C1=O | – | – | – | – | – | – | – | – | 300 | 100 | inactive | – | – | – | – | – | Non-toxic | – | – |
| Cc1cccc(N2CCN(CN3C(=O)CC(C)(c4ccccc4)C3=O)CC2)c1 (stereo not given) | – | – | – | – | Toxic | Toxic | Non-toxic | Non-toxic | 300 | 100 | – | 50% | 50% | 50% | inactive | inactive | – | – | TD50 at 4 h [1]: 300 mg/kg; Activity (Rattus norvegicus [13]): Non-toxic; MED50 (Mus musculus [27]): 100 mg/kg |
